Assay [1] has as its target Gastrin/cholecystokinin type B receptor (Cavia porcellus). As to the kind of experiment: Binding affinity towards Cholecystokinin type B receptor was measured by displacement of [125I]CCK from guinea pig cortical membranes.
For assay [2] the target is unchanged. The assay is described as above. This is another data set of the same source.

IC50 data for three molecules are collected here from BindingDB's records for doi:10.1016/0960-894X(95)00399-E (1995).

Take `CN1C(=O)C(NC(=O)Nc2cccc(C(=O)O)c2)N=C(C2CCCCC2)c2ccccc21` (stereo not drawn) [3-[3-(5-Cyclohexyl-1-methyl-2-oxo-2,3-dihydro-1H-benzo[e][1,4]diazepin-3-yl)-ureido]-benzoic acid]: the IC50 in assay [1] amounted to 1400 pM.
With `CC(=O)NS(=O)(=O)c1cccc(NC(=O)NC2N=C(C3CCCCC3)c3ccccc3N(C)C2=O)c1` (stereo not drawn) [N-Acetyl-3-[3-(5-cyclohexyl-1-methyl-2-oxo-2,3-dihydro-1H-benzo[e][1,4]diazepin-3-yl)-ureido]-benzenesulfonamide], in assay [1], the IC50 is 360 pM.
Take `CN1C(=O)[C@H](NC(=O)Nc2cccc(C(=O)NS(=O)(=O)c3ccccc3)c2)N=C(C2CCCCC2)c2ccccc21` [N-{3-[3-((R)-5-Cyclohexyl-1-methyl-2-oxo-2,3-dihydro-1H-benzo[e][1,4]diazepin-3-yl)-ureido]-benzoyl}-benzenesulfonamide]: in assay [2], the IC50 turned out to be 730 pM.
